Test results: EP4806892A1, “CEREBLON E3 UBIQUITIN LIGASE INHIBITOR” (GAN & LEE PHARMACEUTICALS CO., LTD., priority 2023, dated 2025)
pIC50: −log10 of the molar value.

Molecular target: E3 ubiquitin ligase CRBN (Homo sapiens, UniProt Q96SW2)
Test: CRBN competitive binding assay (HTRF, thalidomide-XL665 displacement)
Details: not given
Description: CRBN binding activity test kit (CEREBLON BINDING KITS (PE, 64BD CRBN PEG)).
The detection is based on homogeneous time-resolved fluorescence (HTRF) technology.
This kit uses a europium-labeled GST antibody (GST Eu Cryptate Antibody) as the donor and XL665-labeled thalidomide (Thalidomide-Red reagent) as the receptor. The donor binds to the GST-tagged CRBN protein.
The donor and acceptor were each diluted 50-fold using the buffer (PROTAC binding buffer 1) in the kit. The CRBN protein was diluted 45-fold. The 8 mM compound solution disclosed in the present invention was diluted 10-fold using the diluent (1 X diluent) in the kit, and then the dilutd solution was subjected to 5-fold gradient dilution of the diluent, diluted 7 times sequentially. […] The mixture was incubated at room temperature for 3 hours. The ratio of the acceptor and donor emission signals for each individual well was calculated.
IC50 value was calculated based on compound concentration, Ratio, and coefficient of variation using GraphPad Prism.

Compound O=C1CCN(c2cc3c(cc2F)N2CCNC[C@@H]2CCO3)C(=O)N1 [Example B13] has a pIC50 of 5.35.

Same assay, conditions: competition with XL665-labeled thalidomide for GST-tagged CRBN protein, 3 hours at room temperature

O=C1CCC(c2ccc3c(c2)OC2(CCNCC2)CC3)C(=O)N1 (stereo not shown) [Example A4] showed a pIC50 of 6.26.

Same assay, conditions: competition with XL665-labeled thalidomide for GST-tagged CRBN protein, 3 hours at room temperature; read-out: IC50

Point of comparison: O=C1CCN(c2ccc3c(c2)OC2(CCNCC2)C3)C(=O)N1 [Example A11, 1-(3H-spiro[benzofuran-2,4'-piperidin]-6-yl)dihydropyrimidine-2,4(1H,3H)-dione], pIC50 5.21. Against it:
- O=C1CCN(c2ccc3c(c2)NC(=O)CC2CNCCN32)C(=O)N1 (stereo not shown) [Example B6, 1-(6-oxo-1,2,3,4,4a,5,6,7-octahydrobenzo[b]pyrazino[1,2-d][1,4]diazepin-9-yl)dihydropyrimidine-2,4(1H,3H)-dione] — 0.60 log units lower, 4.61
- CN1CC2(CCNCC2)Oc2cc(N3CCC(=O)NC3=O)ccc21 [Example A10, 1-(4-methyl-3,4-dihydrospiro[benzo[b][1,4]oxazine-2,4'-piperidin]-7-yl)dihydropyrimidine-2,4(1H,3H)-dione] — 0.83 log units higher, 6.04
- O=C1CCN(c2ccc3c(c2)CC2(CCNCC2)O3)C(=O)N1 [Example A12, 1-(3H-spiro[benzofuran-2,4'-piperidin]-5-yl)dihydropyrimidine-2,4(1H,3H)-dione] — 0.34 log units lower, 4.87
- O=C1CCN(c2ccc3c(c2)OC2(CC3)CNC2)C(=O)N1 [Example A5, 1-(spiro[azetidine-3,2'-chroman]-7'-yl)dihydropyrimidine-2,4(1H,3H)-dione] — 0.30 log units higher, 5.51
- O=C1CCN(c2ccc3c(c2)CCC2(CNC2)O3)C(=O)N1 [Example A14, 1-(spiro(azetidine-3,2'-benzodihydropyran)-6'-yl)dihydropyrimidine-2,4(1H,3H)-dione] — within 0.2 log units, 5.08
- COc1cc2c(cc1N1CCC(=O)NC1=O)OCC[C@H]1CNCCN21 [Example B14, (S)-1-(10-methoxy-2,3,4,4a,5,6-hexahydro-1H-benzo[b]pyrazino[1,2-d][1,4]oxazepin-9-yl)dihydropyrimidine-2,4(1H,3H)-dione] — within 0.2 log units, 5.27
- O=c1ccn(-c2ccc3c(c2)OC2(CCNCC2)CC3)c(=O)[nH]1 [Example A1, 1-(spiro[chroman-2,4'-piperidin]-7-yl)pyrimidine-2,4(1H,3H)-dione] — 0.62 log units lower, 4.59
- O=C1CCN(c2ccc3c(c2)CC2(CNC2)CO3)C(=O)N1 [Example A16, 1-(spiro[azetidine-3,3'-chroman]-6'-yl)dihydropyrimidine-2,4(1H,3H)-dione] — 0.31 log units lower, 4.90
- O=C1CCN(c2ccc3c(c2)OCCC2CNCCN32)C(=O)N1 (stereo not shown) [Example B1, 1-(2,3,4,4a,5,6-hexahydro-1H-benzo[b]pyrazino[1,2-d][1,4]oxazepin-9-yl)dihydropyrimidine-2,4(1H,3H)-dione] — within 0.2 log units, 5.23
- O=C1CCN(c2cccc3c2OCC32CCNCC2)C(=O)N1 [Example A13, 1-(2H-spiro[benzofuran-3,4'-piperidin]-7-yl)dihydropyrimidine-2,4(1H,3H)-dione] — 0.67 log units lower, 4.54
- O=C1CCN(c2ccc3c(c2)COC[C@@H]2CNCCN32)C(=O)N1 [Example B9, (S)-1-(1,2,3,4,4a,5-hexahydro-7H-benzo[e]pyrazino[2,1-c][1,4]oxazepin-9-yl)dihydropyrimidine-2,4(1H,3H)-dione] — within 0.2 log units, 5.07
- CN1CC[C@H]2CNCCN2c2ccc(N3CCC(=O)NC3=O)cc21 [Example B7, (S)-1-(7-methyl-1,2,3,4,4a,5,6,7-octahydrobenzo[b]pyrazino[1,2-d][1,4]diazepin-9-yl)dihydropyrimidine-2,4(1H,3H)-dione] — 0.21 log units higher, 5.42
- COc1cc2c(cc1N1CCC(=O)NC1=O)OCC[C@H]1CN(C(C)=O)CCN21 [Example B12] — 0.44 log units higher, 5.65
- O=C1CCN(c2ccc3c(c2)OCC[C@H]2CNCCN32)C(=O)N1 [Example B2, (S)-1-(2,3,4,4a,5,6-hexahydro-1H-benzo[b]pyrazino[1,2-d][1,4]oxazepin-9-yl)dihydropyrimidine-2,4(1H,3H)-dione] — the same, 5.21
- CN1CC2CNCCN2c2ccc(N3CCC(=O)NC3=O)cc21 (stereo not shown) [Example B11, 1-(6-methyl-2,3,4,4a,5,6-hexahydro-1H-pyrazino[1,2-a]quinoxalin-8-yl)dihydropyrimidine-2,4(1H,3H)-dione] — 0.21 log units higher, 5.42
- O=C1CCN(c2ccc3c(c2)COC[C@H]2CNCCN32)C(=O)N1 [Example B8, (R)-1-(1,2,3,4,4a,5-hexahydro-7H-benzo[e]pyrazino[2,1-c][1,4]oxazepin-9-yl)dihydropyrimidine-2,4(1H,3H)-dione] — 0.21 log units lower, 5.00
- O=C1CCN(c2cc3c(cc2Cl)N2CCNC[C@@H]2CCO3)C(=O)N1 [Example B15, (S)-1-(10-chloro-2,3,4,4a,5,6-hexahydro-1H-benzo[b]pyrazino[1,2-d][1,4]oxazepin-9-yl)dihydropyrimidine-2,4(1H,3H)-dione] — 0.22 log units higher, 5.43
- O=C1CCC2(CC1)CCc1ccc(N3CCC(=O)NC3=O)cc1O2 [Example A3, 1-(4'-oxospiro[chroman-2,1'-cyclohexan]-7-yl)dihydropyrimidine-2,4(1H,3H)-dione] — 1.02 log units higher, 6.23
- O=C1CCN(c2ccc3c(c2)CCC2(CCNCC2)O3)C(=O)N1 [Example A6, 1-(spiro[chromate-2,4'-piperidin]-6-yl)dihydropyrimidine-2,4(1H,3H)-dione] — within 0.2 log units, 5.13
- O=C1CCN(c2ccc3c(c2)OCC32CCNCC2)C(=O)N1 [Example A9, 1-(2H-spiro[benzofuran-3,4'-piperidin]-6-yl)dihydropyrimidine-2,4(1H,3H)-dione] — 0.27 log units lower, 4.94
- O=C1CCN(c2ccc3c(c2)OCC2(CCNCC2)C3)C(=O)N1 [Example A7, 1-(spiro[benzopyran-3,4'-piperidin]-7-yl)dihydropyrimidine-2,4(1H,3H)-dione] — 0.31 log units lower, 4.90
- O=C1CCN(c2cnc3c(c2)OCC[C@@H]2CNCCN32)C(=O)N1 [Example B5, (R)-1-(7,7a,8,9,10,11-hexahydro-6H-pyrazino[1,2-d]pyrido[3,2-b][1,4]oxirane-3-yl)dihydropyrimidine-2,4(1H,3H)-dione] — 0.22 log units lower, 4.99
- O=C1CCN(c2ccc3c(c2)OC2(CCNCC2)CC3)C(=O)N1 [Example A2, 1-(spiro[chroman-2,4'-piperidin]-7-yl)dihydropyrimidine-2,4(1H,3H)-dione] — 0.61 log units higher, 5.82
- O=C1CCN(c2cnc3c(c2)OCC[C@H]2CNCCN32)C(=O)N1 [Example B4, (S)-1-(7,7a,8,9,10,11-hexahydro-6H-pyrazino[1,2-d]pyrido[3,2-b][1,4]oxazepin-3-yl)dihydropyrimidine-2,4(1H,3H)-dione] — within 0.2 log units, 5.26
- O=C1CCN(c2ccc3c(c2)CC2(CCNCC2)CO3)C(=O)N1 [Example A8, 1-(spiro[benzopyran-3,4'-piperidin]-6-yl)dihydropyrimidine-2,4(1H,3H)-dione] — within 0.2 log units, 5.02
- O=C1CCN(c2ccc3c(c2)OCC2(CNC2)C3)C(=O)N1 [Example A15] — within 0.2 log units, 5.04
- O=C1CCN(c2ccc3c(c2)OCC[C@@H]2CNCCN32)C(=O)N1 [Example B3, (R)-1-(2,3,4,4a,5,6-hexahydro-1H-benzo[b]pyrazino[1,2-d][1,4]oxazepin-9-yl)dihydropyrimidine-2,4(1H,3H)-dione] — within 0.2 log units, 5.25
- O=C1CCN(c2ccc3c(c2)NC(=O)C2CNCCN32)C(=O)N1 (stereo not shown) [Example B10, 1-(5-oxo-2,3,4,4a,5,6-hexahydro-1H-pyrazino[1,2-a]quinoxalin-8-yl)dihydropyrimidine-2,4(1H,3H)-dione] — 0.27 log units higher, 5.48
